Consider 6 molecules from US20250129074A1, “CHIMERIC COMPOUND FOR TARGETED DEGRADATION OF ANDROGEN RECEPTOR PROTEIN, PREPARATION METHOD THEREFOR, AND MEDICAL USE THEREOF” (Jiangsu Hengrui Pharmaceuticals Co., Ltd., priority 2021, published 2025).

The structures appear in SMILES notation.

For orientation: IC50 means the concentration that inhibits the measured activity by half. The low end stands for higher potency, the high end for lower potency. A word on the DC50: it is the concentration at which degradation of the target reaches its halfway point. One may read the half-life as the time needed for the level to fall by half in the phase considered.

Data set [1] has as its system LNCap-FGC xenograft tumors. Put plainly: Pharmacodynamic testing: LNCap-FGC subcutaneous xenograft in castrated CB17-SCID mice. Type of data set: in vivo. The conditions noted are these: i.g.; for Mean tumor volume D 21 / Number of remaining animals/group / TGI D 21: qd/21 d. The source says: To evaluate the inhibition of the growth of castration-resistant prostate cancer LNCap-FGC subcutaneous xenograft tumors in male CB17-SCID mice by compounds of the present disclosure.
Test animals: CB17-SCID male mice, purchased from Beijing Vital River Laboratory Animal Technology Co., Ltd. (certificate No. SCXK(Beijing)2016-0006; animal certification No. 110011220107542683), weighing about 20.54-26.72 g on purchase. Housing conditions: 5 animals/cage, a 12/12-hour light/dark cycle, a constant temperature of 23±1° C. with humidity at 50 to 60%, ad libitum access to food and water.
0.2 mL (10×10^6 cells+Matrigel) of LNCaP FGC cells (Matrigel was added, in a 1:1 ratio by volume) in the logarithmic growth phase was subcutaneously inoculated into the right upper limb of each mouse. When the mean tumor volume reached 77 mm^3, male mice with stable tumor growth were selected and subjected to orchiectomy followed by three days of analgesic care. When the mean tumor volume reached 172 mm^3, grouping and administration were started. The day of grouping was defined as DO, and intragastric administration was started and performed once a day for 21 days. The 21th day after administration was defined as D21 (Table 7). For tumor-bearing mice, the tumor volume was measured with a vernier caliper and the body weight was measured with a balance twice a week, and data were recorded.
All data were plotted and statistically analyzed using Excel and GraphPad Prism 8 software.
The calculation formula for tumor volume (V) was: V=½×a×b^2, where a and b represent length and width, respectively.
Relative tumor proliferation rate T/C(%)=(T-T0)/(C-C0)×100 (%), where T and C represent the tumor volumes of a treatment group and the control group at the end of the experiment; T0 and C0 represent the tumor volumes at the beginning of the experiment.

The subject of the next data set is LNCaP cells. Put plainly: Inhibition of LNCaP proliferation (CellTiter-Glo). Type of data set: cell-based. The conditions noted are these: Homo sapiens, 144 h, 0.1 nM R1881, six days; for Emax: read-out: Max (maximum proliferation inhibition rate). The protocol:
The plate was incubated in a 37° C., 5% CO2 cell incubator for three days. […] A blank control cell well containing 0.5% DMSO and a cell-free vehicle control well were set up. The plate was incubated in a 37° C., 5% CO2 cell incubator for six days.
In general terms: In ATP-based viability assays light output follows the ATP content of the culture.

For the next data set, the target named is T1, androgen receptor (AR) (Homo sapiens, UniProt P10275, T878A).
T1 construct: host or cells: LNCaP human prostate cancer cells
T1 sequence (P10275 1-920 T878A): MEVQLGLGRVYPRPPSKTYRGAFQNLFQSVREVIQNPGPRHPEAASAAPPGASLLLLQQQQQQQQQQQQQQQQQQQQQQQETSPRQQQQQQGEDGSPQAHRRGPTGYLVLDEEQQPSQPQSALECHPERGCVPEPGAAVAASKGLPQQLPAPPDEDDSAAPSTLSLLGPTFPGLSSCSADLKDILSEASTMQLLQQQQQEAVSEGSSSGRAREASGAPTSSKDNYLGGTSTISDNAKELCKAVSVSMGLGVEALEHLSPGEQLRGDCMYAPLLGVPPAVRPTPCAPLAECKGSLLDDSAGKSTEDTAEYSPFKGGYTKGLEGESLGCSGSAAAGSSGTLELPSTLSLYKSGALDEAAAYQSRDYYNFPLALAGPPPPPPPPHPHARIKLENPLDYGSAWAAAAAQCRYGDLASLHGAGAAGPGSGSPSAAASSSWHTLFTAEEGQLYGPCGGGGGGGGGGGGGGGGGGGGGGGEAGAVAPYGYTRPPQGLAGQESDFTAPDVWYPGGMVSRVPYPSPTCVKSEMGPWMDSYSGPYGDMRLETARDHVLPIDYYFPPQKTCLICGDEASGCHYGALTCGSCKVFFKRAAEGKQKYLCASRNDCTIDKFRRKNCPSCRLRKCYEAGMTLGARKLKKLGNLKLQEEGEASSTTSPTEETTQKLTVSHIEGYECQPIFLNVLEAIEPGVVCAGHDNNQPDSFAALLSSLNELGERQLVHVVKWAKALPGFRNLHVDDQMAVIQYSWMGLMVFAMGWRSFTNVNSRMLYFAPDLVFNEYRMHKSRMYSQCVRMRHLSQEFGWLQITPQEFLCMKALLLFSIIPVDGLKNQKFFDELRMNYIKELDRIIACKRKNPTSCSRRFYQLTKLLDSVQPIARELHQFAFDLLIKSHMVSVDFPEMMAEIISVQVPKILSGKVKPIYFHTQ
Put plainly: Degradation activity on androgen receptor in LNCaP cells (AR ELISA). The settings on record: 0.1 nM R1881, 24 hours; for DC50: read-out: LNCaP DC50; for Dmax: read-out: Max (maximum AR degradation rate). Type of data set: cell-based. The gist of the method: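 LNCaP cells were treated with compound, with a 0.5% DMSO blank control, for 24 h at 37 °C, 5% CO2. Cells were then lysed and the lysate clarified. AR protein level was read by ELISA.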
Background: An ELISA detects its analyte on a solid surface through an enzyme-linked reagent.

Data set [2] is described as follows: Pharmacokinetic evaluation in SD rats. The settings on record: both sexes, rat, in vivo, po, i.g., 2.0 mg/kg; for Vd/F: read-out: Apparent distribution volume Vz/F; for AUC(0-t): read-out: Area under curve AUC0-t; for CL/F: read-out: Clearance rate CL/F; for half-life: read-out: Half-life T½ (converted); for Cmax: read-out: Plasma concentration Cmax. The procedure: SD rats were used as test animals.
32 SD rats, provided by Vital River Laboratory Animal Co., Ltd., with an equal number of males and females, were evenly divided into 8 groups. The animals were fasted overnight and then intragastrically dosed.
The dose administered was 2.0 mg/kg, and the volume was 10.0 mL/kg.
The procedure starting from the blood collection to the centrifugation was performed under ice-bath conditions. Access to food was given 2 hours after administration.

Turning to `N#Cc1ccc(O[C@H]2CC[C@H](NC(=O)c3ccc(N4CCC(CN5CCN(c6cc7c(cc6F)C(=O)N(C6CCC(=O)NC6=O)C7=O)CC5)CC4)nn3)CC2)cc1Cl` (stereo partly shown) [ARV-110, reference compound], in data set [1] (1 mpk), the “Mean tumor volume D 21” value is 789 mm^3, the “Number of remaining animals/group” value was 8/8 and the “TGI D 21” value worked out at 57%. Moreover, in data set [1] (10 mpk), the “Mean tumor volume D 21” value worked out at 293 mm^3, the “Number of remaining animals/group” value was 8/8 and the “TGI D 21” value is 92%.
In the case of `C[C@H]1CC2(CCN(c3ccc(C(=O)N4CCC(CN5CCN(c6cccc(NC7CCC(=O)NC7=O)c6)CC5)CC4)cc3)CC2)CN1c1ccc(C#N)c(Cl)c1` (stereo partly drawn) [Example 11, 2-Chloro-4-((3S)-8-(4-(4-((4-(3-((2,6-dioxopiperidin-3-yl)amino)phenyl)piperazin-1-yl)methyl)piperidine-1-carbonyl)phenyl)-3-methyl-2,8-diazaspiro[4.5]decan-2-yl)benzonitrile], in the data set on LNCaP cells, inhibition was half-maximal at 82 nM (IC50) and the Emax is 68%. At androgen receptor (AR), the 50% degradation concentration (DC50) worked out at 7.3 nM and the Dmax amounted to 98%. In addition, in data set [2], the Vd/F was found to be 34.8 L/kg, the AUC(0-t) was determined as 644 ng·h/mL, the CL/F was 60.2 mL/min/kg and the half-life was 6.75 h. Further, the Cmax in data set [2] was found to be 69.4 ng/mL.
Regarding `C[C@H]1CC2(CCN(c3ccc(C(=O)N4CCC(CN5CCN(c6cccc(NC7CCC(=O)NC7=O)c6)CC5)CC4)nc3)CC2)CN1c1ccc(C#N)c(Cl)c1` (stereo partly drawn) [Example 12, 2-Chloro-4-((3S)-8-(6-(4-((4-(3-((2,6-dioxopiperidin-3-yl)amino)phenyl)piperazin-1-yl)methyl)piperidine-1-carbonyl)pyridin-3-yl)-3-methyl-2,8-diazaspiro[4.5]decan-2-yl)benzonitrile], in the data set with LNCaP cells, the 50% inhibitory concentration (IC50) stood at 48 nM and the Emax amounted to 73%. At androgen receptor (AR), the 50% degradation concentration (DC50) is 1.3 nM and the Dmax is 97%. Also, in data set [2], the Vd/F was 63.1 L/kg, the AUC(0-t) is 304 ng·h/mL, the CL/F was found to be 139 mL/min/kg and the half-life was 5.19 h. Moreover, the Cmax in data set [2] was determined as 37.4 ng/mL.
For the molecule `C[C@H]1CC2(CCN(c3ccc(C(=O)N4CCC(CN5CCN(c6cccc(N[C@H]7CCC(=O)NC7=O)c6)CC5)CC4)cc3F)CC2)CN1c1ccc(C#N)c(Cl)c1` [Example 15-1, 2-Chloro-4-((S)-8-(4-(4-((4-(3-(((S)-2,6-dioxopiperidin-3-yl)amino)phenyl)piperazin-1-yl)methyl)piperidine-1-carbonyl)-2-fluorophenyl)-3-methyl-2,8-diazaspiro[4.5]decan-2-yl)benzonitrile], the “effect on the body weight of the mice” value in data set [1] (1.5, 5 and 15 mpk, once daily for 21 days) is reported as “little effect”. In addition, the “Mean tumor volume D 21” value is on record as 255 mm^3 in data set [1] (1.5 mpk), 188 mm^3 in data set [1] (5 mpk) and 117 mm^3 in data set [1] (15 mpk). The “Number of remaining animals/group” value in data set [1] (1.5 mpk), in data set [1] (5 mpk) and in data set [1] (15 mpk) was 8/8 in each case. The “TGI D 21” value came out at 94% in data set [1] (1.5 mpk), 99% in data set [1] (5 mpk) and 104% in data set [1] (15 mpk).
As for `C[C@H]1CC2(CCN(c3ccc(C(=O)N4CCC(CN5CCN(c6cc(NC7CCC(=O)NC7=O)ccc6F)CC5)CC4)cc3)CC2)CN1c1ccc(C#N)c(Cl)c1` (stereo partly drawn) [Example 23, 2-Chloro-4-((3S)-8-(4-(4-((4-(5-((2,6-dioxopiperidin-3-yl)amino)-2-fluorophenyl)piperazin-1-yl)methyl)piperidine-1-carbonyl)phenyl)-3-methyl-2,8-diazaspiro[4.5]decan-2-yl)benzonitrile], in the data set on LNCaP cells, the IC50 came out at 41 nM and the Emax was 76%. Besides, at androgen receptor (AR), the DC50 was determined as 6.1 nM and the Dmax is 96%. For the same molecule, in data set [2], the Vd/F is 26.3 L/kg, the AUC(0-t) was found to be 703 ng·h/mL, the CL/F was 51.2 mL/min/kg and the half-life was 5.93 h. Also, in data set [2], the Cmax was found to be 81.6 ng/mL.
For `C[C@H]1CC2(CCN(c3ccc(C(=O)N4CCC5(CC4)CC(N4CCN(c6ccc(N7CCC(=O)NC7=O)cc6)CC4)C5)cc3)CC2)CN1c1ccc(C#N)c(Cl)c1` [Example 28, (S)-2-Chloro-4-(8-(4-(2-(4-(4-(2,4-dioxotetrahydropyrimidin-1(2H)-yl)phenyl)piperazin-1-yl)-7-azaspiro[3.5]nonane-7-carbonyl)phenyl)-3-methyl-2,8-diazaspiro[4.5]decan-2-yl)benzonitrile], in the data set on LNCaP cells, the IC50 turned out to be 17 nM and the Emax amounted to 61%. Besides, at androgen receptor (AR), the DC50 turned out to be 5.8 nM and the Dmax came to 97%. Also, in data set [2], the Vd/F is 66.6 L/kg, the AUC(0-t) was found to be 315 ng·h/mL, the CL/F is 108 mL/min/kg and the half-life is 7.17 h. In addition, the Cmax in data set [2] was 25.5 ng/mL.
